According to PMC10026764, “Overcoming the imatinib-resistant BCR-ABL mutants with new ureidobenzothiazole chemotypes endowed with potent and broad-spectrum anticancer activity” (Journal of Enzyme Inhibition and Medicinal Chemistry, 2023):
Several values for one entry are separate records, joined by “and”; a condition that tells them apart may be missing. Equal entries are not always repeated.

How the values were obtained:
L132 normal cell = assay: MTT antiproliferative assay; conditions: Homo sapiens, L132, 72 h, read-out: GI50 L132
Description: (§1) These cellular outcomes define the impact of BCR-ABL inhibition on the proliferation of K-562 cells.

SNB-19 = assay: NCI-60 five-dose SRB assay; type: cell-based; conditions: Homo sapiens; SNB-19, CNS cancer
NCI-H226 = assay: NCI-60 five-dose SRB assay; type: cell-based; conditions: Homo sapiens; NCI-H226, non-small cell lung cancer
BCR-ABL^WT = BCR-ABL^WT (Homo sapiens, UniProt P00519); assay: In vitro kinase screening (RBC), BCR-ABL^WT; type: biochemical; conditions: 10-dose IC50 mode, 3-fold serial dilution, 10 μM ATP
RXF 393 = assay: NCI-60 five-dose SRB assay; type: cell-based; conditions: Homo sapiens; RXF 393, renal cancer
COLO 205 = assay: NCI-60 five-dose SRB assay; type: cell-based; conditions: Homo sapiens; COLO 205, colon cancer
leukaemia K-562 cells = assay: MTT antiproliferative assay; conditions: for GI50: Homo sapiens, K562, 72 h, read-out: GI50 K-562; for SI: selectivity index (GI50 (L132)/GI50 (K562)): MTT, 72 h
Description: as §1

SR = assay: NCI-60 five-dose SRB assay; type: cell-based, human; conditions: leukaemia
PC-3 = assay: NCI-60 five-dose SRB assay; type: cell-based; conditions: Homo sapiens; PC-3, prostate cancer
MALME-3M = assay: NCI-60 five-dose SRB assay; type: cell-based; conditions: Homo sapiens, melanoma
786-0 = assay: NCI-60 five-dose SRB assay; type: cell-based; conditions: Homo sapiens; 786-0, renal cancer
HCT-116 = assay: NCI-60 five-dose SRB assay; type: cell-based; conditions: Homo sapiens; HCT-116, colon cancer
NCI-H23 = assay: NCI-60 five-dose SRB assay; type: cell-based; conditions: Homo sapiens; NCI-H23, non-small cell lung cancer
UO-31 = assay: NCI-60 five-dose SRB assay; type: cell-based, human; conditions: UO-31, renal cancer; for GI50 / CC50: Homo sapiens; for CC50: read-out: LC50 (the source's name)
HL-60(TB) = assay: NCI-60 five-dose SRB assay; type: cell-based; conditions: Homo sapiens, leukaemia
NCI-H322M = assay: NCI-60 five-dose SRB assay; type: cell-based, human; conditions: for CC50 / GI50: Homo sapiens; for CC50 / TGI: NSCL cancer; for CC50: read-out: LC50 (the source's name); for GI50: non-small cell lung cancer
SK-OV-3 = assay: NCI-60 five-dose SRB assay; type: cell-based; conditions: Homo sapiens; SK-OV-3, ovarian cancer
BT-549 = assay: NCI-60 five-dose SRB assay; type: cell-based; conditions: Homo sapiens; BT-549, breast cancer
OVCAR-5 = assay: NCI-60 five-dose SRB assay; type: cell-based, human; conditions: OVCAR-5, ovarian cancer; for GI50 / LC50 (50% net cell kill): Homo sapiens
SN12C = assay: NCI-60 five-dose SRB assay; type: cell-based; conditions: Homo sapiens, renal cancer
SK-MEL-28 = assay: NCI-60 five-dose SRB assay; type: cell-based; conditions: Homo sapiens; SK-MEL-28, melanoma
UACC-257 = assay: NCI-60 five-dose SRB assay; type: cell-based; conditions: Homo sapiens; UACC-257, melanoma
NCI-H460 = assay: cells; type: cell-based; conditions: for CC50 / TGI: NCI-H460, NSCL cancer; for CC50: read-out: LC50 (the source's name)
ACHN = assay: NCI-60 five-dose SRB assay; type: cell-based, human; conditions: renal cancer; for GI50 / CC50: Homo sapiens; for CC50: read-out: LC50 (the source's name)
BCR-ABL^T315I = biological target: T1, BCR-ABL^T315I (Homo sapiens, UniProt P00519, T315I); assay: In vitro kinase screening (RBC), BCR-ABL^T315I; type: biochemical; conditions: 10-dose IC50 mode, 3-fold serial dilution, 10 μM ATP
T1 construct: purchased Reaction Biology Corporation (RBC, Malvern, PA, USA)

MCF7 = assay: NCI-60 five-dose SRB assay; type: cell-based, human; conditions: MCF7, breast cancer; for GI50 / CC50: Homo sapiens; for CC50: read-out: LC50 (the source's name)
CCRF-CEM = assay: NCI-60 five-dose SRB assay; type: cell-based; conditions: Homo sapiens, leukaemia
SF-539 = assay: NCI-60 five-dose SRB assay; type: cell-based; conditions: Homo sapiens; SF-539, CNS cancer
NCI-60 cell lines = assay: NCI-60 single dose SRB assay (panel); type: cell-based; conditions: single dose 10 μM
Description: To gain further insights about the anticancer profile of this new ureidobenzothiazole chemotypes, the structures of all final compounds were submitted to the National Cancer Institute (NCI, Developmental Therapeutics Program, Bethesda, MD, USA). Based on NCI selection criteria, compounds 2b (AK-HW-90), 2e, and 2f were chosen for broad screening against a library of 60 human cancer cell lines, representing nine types of blood and solid cancers. Employing the highly sensitive sulforhodamine B (SRB) assay, compounds 2b, 2e, and 2f were tested initially at a single dose of 10 μM, and their detailed activities on the percentages growth of the NCI-60 cell lines were illustrated in Figure 5, and compared with that observed for the lead benzothiazole AKE-5l.

HCT-15 = assay: NCI-60 five-dose SRB assay; type: cell-based, human; conditions: HCT-15, colon cancer; for GI50 / CC50: Homo sapiens; for CC50: read-out: LC50 (the source's name)
T-47D = assay: NCI-60 five-dose SRB assay; type: cell-based; conditions: Homo sapiens, T47D, breast cancer
MDA-MB-468 = assay: NCI-60 five-dose SRB assay; type: cell-based; conditions: Homo sapiens; MDA-MB-468, breast cancer
LOX IMVI = assay: NCI-60 five-dose SRB assay; type: cell-based; conditions: Homo sapiens, melanoma
SK-MEL-2 = assay: NCI-60 five-dose SRB assay; type: cell-based; conditions: Homo sapiens; SK-MEL-2, melanoma
RPMI-8226 = assay: NCI-60 five-dose SRB assay; type: cell-based; conditions: Homo sapiens; RPMI-8226, leukaemia
NCI/ADR-RES = assay: NCI-60 five-dose SRB assay; type: cell-based; conditions: Homo sapiens, ovarian cancer
[1] = Homo sapiens, NCI-H460, NCI-H460, non-small cell lung cancer

CCN1CCN(c2ccc(NC(=O)Nc3nc4ccc(-c5ccccc5OC)cc4s3)cc2)CC1 [Compound 2b]
GI50 (L132 normal cell): 17.9 µM
GI50 (SNB-19): 2.03 µM
GI50 (NCI-H226): 2.09 µM
IC50 (BCR-ABL^WT): 0.0007 µM and 0.000701 µM
GI50 (RXF 393): 1.7 µM
GI50 (COLO 205): 1.97 µM
GI50 (leukaemia K-562 cells): 3.39 µM
SI: selectivity index (GI50 (L132)/GI50 (K562)) (leukaemia K-562 cells): 5.3
GI50 (SR; Homo sapiens): ~1.7 µM
GI50 (SR): 1.65 µM
GI50 (PC-3): 1.79 µM
GI50 (MALME-3M): 1.71 µM
GI50 (786-0): 1.8 µM
GI50 (HCT-116): 1.58 µM
GI50 (NCI-H23): 1.67 µM
GI50 (UO-31): 1.52 µM
CC50 (UO-31): 5.63 µM
TGI (UO-31): 2.92 µM
GI50 (HL-60(TB)): 1.73 µM
CC50 (NCI-H322M): 5.99 µM
GI50 (NCI-H322M): 1.53 µM
TGI (NCI-H322M): 3.03 µM
GI50 (SK-OV-3): 1.79 µM
GI50 (BT-549): 1.88 µM
GI50 (OVCAR-5): 1.8 µM
LC50 (50% net cell kill) (OVCAR-5): 6.33 µM
TGI (OVCAR-5): 3.37 µM
GI50 (SN12C): 1.77 µM
GI50 (SK-MEL-28): 1.76 µM
GI50 (UACC-257): 2.11 µM
GI50 (NCI-H460; [1]): ~1.76 µM
CC50 (NCI-H460; Homo sapiens): 6.01 µM
TGI (NCI-H460): 3.27 µM
GI50 (NCI-H460; NCI-H460, non-small cell lung cancer): 1.77 µM
GI50 (ACHN): 1.74 µM
CC50 (ACHN): 5.58 µM
TGI (ACHN): 3.11 µM
IC50 (BCR-ABL^T315I): 0.00065 µM and 0.000651 µM
GI50 (MCF7): 1.31 µM
CC50 (MCF7): 6.25 µM
TGI (MCF7): 2.86 µM
GI50 (CCRF-CEM): 1.81 µM
GI50 (SF-539): 1.6 µM
number of cancer cells with lethal/cytotoxic effects (minus % growth values) (NCI-60 cell lines): 55 cancer cells
TGI (HCT-15): 2.47 µM
GI50 (HCT-15): 1.2 µM
CC50 (HCT-15): 5.06 µM
GI50 (T-47D): 1.58 µM
GI50 (MDA-MB-468): 2.17 µM
GI50 (LOX IMVI): 1.7 µM
GI50 (SK-MEL-2): 1.94 µM
GI50 (RPMI-8226): 2.06 µM
GI50 (NCI/ADR-RES): 1.72 µM

COc1ccccc1-c1ccc2nc(NC(=O)Nc3cc(C(F)(F)F)cc(C(F)(F)F)c3)sc2c1 [Compound 2e]
GI50 (L132 normal cell): 35.1 µM
GI50 (SNB-19): 2.44 µM
GI50 (NCI-H226): 2.16 µM
IC50 (BCR-ABL^WT): 4.09 µM
GI50 (RXF 393): 2.19 µM
GI50 (COLO 205): 1.65 µM
GI50 (leukaemia K-562 cells): 13.9 µM
SI: selectivity index (GI50 (L132)/GI50 (K562)) (leukaemia K-562 cells): 2.5
GI50 (SR; Homo sapiens): ~1.7 µM
GI50 (SR): 1.76 µM
GI50 (PC-3): 1.49 µM
GI50 (MALME-3M): 1.81 µM
GI50 (786-0): 1.44 µM
GI50 (HCT-116): 1.07 µM
GI50 (NCI-H23): 2.02 µM
GI50 (UO-31): 1.79 µM
CC50 (UO-31): 9.29 µM
TGI (UO-31): 4.07 µM
GI50 (HL-60(TB)): 2.01 µM
CC50 (NCI-H322M): 37 µM
GI50 (NCI-H322M): 2.78 µM
TGI (NCI-H322M): 9.06 µM
GI50 (SK-OV-3): 2.92 µM
GI50 (BT-549): 1.62 µM
GI50 (OVCAR-5): 2.54 µM
LC50 (50% net cell kill) (OVCAR-5): 32.7 µM
TGI (OVCAR-5): 9.66 µM
GI50 (SN12C): 1.7 µM
GI50 (SK-MEL-28): 2.51 µM
GI50 (UACC-257): 2.31 µM
GI50 (NCI-H460; [1]): 2.26 µM
CC50 (NCI-H460; Homo sapiens): 23.5 µM
TGI (NCI-H460): 6.12 µM
GI50 (ACHN): 2.14 µM
CC50 (ACHN): 28.2 µM
TGI (ACHN): 7.71 µM
IC50 (BCR-ABL^T315I): 9.56 µM
GI50 (MCF7): 2.28 µM
CC50 (MCF7): 46.2 µM
TGI (MCF7): 10.9 µM
GI50 (CCRF-CEM): 2.43 µM
GI50 (SF-539): 1.99 µM
number of cancer cells with lethal/cytotoxic effects (minus % growth values) (NCI-60 cell lines): 21 cancer cells
TGI (HCT-15): 10.6 µM
GI50 (HCT-15): 2.55 µM
CC50 (HCT-15): 34.6 µM
GI50 (T-47D): 2.16 µM
GI50 (MDA-MB-468): 1.52 µM
GI50 (LOX IMVI): 1.68 µM
GI50 (SK-MEL-2): 2.09 µM
GI50 (RPMI-8226): 1.63 µM
GI50 (NCI/ADR-RES): 2.37 µM

Cc1ccc(NC(=O)c2ccc(CN3CCN(C)CC3)cc2)cc1Nc1nccc(-c2cccnc2)n1 [Imatinib]
GI50 (L132 normal cell): > 10 µM
GI50 (leukaemia K-562 cells): 0.8 µM
